Test results: publication PMC9860869, “First Phytochemical Profiling and In-Vitro Antiprotozoal Activity of Essential Oil and Extract of Plagiochila porelloides” (Molecules, 2023)

Tests used:
[1] = tested on: Leishmania mexicana mexicana promastigotes; assay: In vitro test for antileishmanial activity; type: cell-based; conditions: Lmm promastigotes, pure compound (positive control), read-out: Antiprotozoal assay IC50 ± SD Lmm
Method: (§1) Trypanosoma brucei brucei (strain 427) bloodstream forms were cultured in vitro in HMI9 medium containing 10% heat-inactivated fetal bovine serum. Leishmania mexicana mexicana promastigotes (MHOM/BZ/84/BEL46) were cultivated in vitro in a semi-defined medium (SDM-79) supplemented with 15% heat-inactivated fetal bovine serum. The human normal fibroblast cell line, WI-38, was cultivated in vitro in DMEM medium containing 4 mM L-glutamine, 1 mM sodium pyruvate supplemented with 10% heat-inactivated fetal bovine serum and penicillin–streptomycin (100 UI/mL to 100 µg/mL). All cells were incubated in a humidified atmosphere with 5% CO2 at 37 °C except the Leishmania promastigotes which were incubated at 28 °C.
(§2) The in vitro test was performed as described previously. Pentamidine isethionate salt (a commercial antileishmanial drug) and suramine sodium salt (a commercial antitrypanosomal drug) were used as positive controls in all experiments with an initial concentration of 10 µg/mL. First, stock solutions of crude extracts and compounds were prepared in DMSO at 20 mg/mL (and 2 mg/mL for positive controls). The solutions were further diluted in medium to give 0.2 mg/mL stock solutions. Essential oil and extracts were tested in eight serial three-fold dilutions (final concentration range: 100–0.05 µg/mL) in 96-well microtiter plates. All tests were repeated three times in duplicate.

[2] = tested on: Trypanosoma brucei brucei (bloodstream forms); assay: In vitro test for antitrypanosomal activity; type: cell-based; conditions: Tbb bloodstream forms, pure compound (positive control), read-out: Antiprotozoal assay IC50 ± SD Tbb
Method: as §1, §2

[3] = Cytotoxicity assay on J774 cells; type: cell-based, murine; conditions: mouse, J774 macrophage-like cells, pure compound (positive control), read-out: Cytotoxicity IC50 ± SD J774
Method: (§3) The cytotoxicity of the essential oil and extracts on WI-38 and J774 cells was evaluated as previously described from the same stock solutions [45].

[4] = Cytotoxicity assay on WI38 cells; type: cell-based; conditions: human, WI-38 normal fibroblast cells, pure compound (positive control), read-out: Cytotoxicity IC50 ± SD WI38
Method: as §1, §3

Compound N=C(N)c1ccc(OCCCCCOc2ccc(C(=N)N)cc2)cc1 [Pentamidine] has an IC50 [1] of 70 ± 4 nM.

For Cc1ccc(C(=O)Nc2ccc(S(=O)(=O)O)c3cc(S(=O)(=O)O)cc(S(=O)(=O)O)c23)cc1NC(=O)c1cccc(NC(=O)Nc2cccc(C(=O)Nc3cc(C(=O)Nc4ccc(S(=O)(=O)O)c5cc(S(=O)(=O)O)cc(S(=O)(=O)O)c45)ccc3C)c2)c1 [Suramine], the IC50 [2] was 30 ± 4 nM.

In the case of CC[C@@]1(O)C(=O)OCc2c1cc1n(c2=O)Cc2cc3ccccc3nc2-1 [Camptothecin], the IC50 [3] is reported as 10 ± 1 nM and the IC50 [4] is reported as 31 ± 2 nM.
